System: EGFR, ERK1, ERK2, and AKT
Assay: Phosphorylation of signaling proteins in HT29 cells
Format: cell-based, human
Experimental: These effects were detected with as little as […] of EGCG, and within 5 minutes. Phosphorylation of EGFR, ERK1, ERK2, and AKT were suppressed in cells treated with methyl-β-cyclodextrin, which depletes plasma membrane cholesterol. […] In addition, the inhibitory effect of EGCG on phosphorylation of EGFR was not blocked by the addition of cholesterol on the growth medium. These findings provide evidence that EGCG can alter membrane domain organization in colon cancer cells ant that this is not due to cholesterol depletion. It was noted that pre-treatment of the cells with EGCG or Poly E inhibited the binding of Alexa 488-labeled EGF to the cell surface receptor EGFR.

Q: How did the “inhibitory effect on phosphorylation of EGFR on addition of cholesterol to the growth medium” value turn out when (−)-epigallocatechin gallate was run?
A: The value was “not blocked”.

Reference: patent US20070054868A1, “Synergistic polyphenol compounds, compositions thereof, and uses thereof” (The Trustees of Columbia University in the City of New York, priority 2005, published 2007)
